Reference: DBAASP
≈ marks a conversion by molar mass, not a printed value. Where “and” joins values, the source holds several entries; their conditions need not be identical. Equal values may be shown once. One block for each compound: values may come before it.

Assays:
Test in all cases: ≥ marks a high value that may be exact or a test limit, other limits are often not marked, values filed in µg/mL are converted to µM
[1] = system: Staphylococcus aureus ATCC 29213
[2] = system: Bacillus subtilis KCTC 1998
[3] = system: Proteus vulgaris KCTC 2433
[4] = system: Pseudomonas aeruginosa ATCC 15692
[5] = system: Listeria monocytogenes ATCC 3710
[6] = system: Escherichia coli ATCC 25922
[7] = system: Staphylococcus epidermidis ATCC 12228
[8] = system: Xanthomonas campestris pv. citri
[9] = system: Pectobacterium carotovorum
Fusarium oxysporum = system: Fusarium oxysporum
Trichoderma asperellum = system: Trichoderma asperellum
[10] = system: Pseudomonas syringae pv. tabaci
[11] = system: Bacillus subtilis ATCC 23857
[12] = system: Candida albicans ATCC 90028
[13] = system: Cryptococcus neoformans ATCC 28957
[14] = system: Fusarium oxysporum f.sp. vasinfectum
Ramulariopsis gossypii = system: Ramulariopsis gossypii
[15] = system: Candida glabrata 09050201
[16] = system: Candida albicans 08022710
[17] = system: Klebsiella pneumoniae 1400
[18] = system: Staphylococcus aureus 08032706
[19] = system: Pseudomonas aeruginosa 08031014
Shigella sp. = system: Shigella sp.
[20] = system: Enterococcus faecalis 981
Bacillus cereus = system: Bacillus cereus
Escherichia coli = system: Escherichia coli
[21] = system: Staphylococcus aureus ATCC 25923
Nocardia asteroides = system: Nocardia asteroides
[22] = system: Staphylococcus epidermidis
Klebsiella oxytoca = system: Klebsiella oxytoca
[23] = system: Stenotrophomonas maltophilia
[24] = system: Pseudomonas aeruginosa ATCC 27853
[25] = system: Salmonella enterica subsp. enterica serovar Paratyphi A
[26] = system: Staphylococcus aureus 08032810
Candida glabrata 08A802 = system: Candida glabrata 08A802
[27] = system: Enterococcus faecium 1299
[28] = system: Candida albicans 08030809
[29] = system: Candida albicans 08030401
[30] = system: Candida albicans 08030102
[31] = system: Staphylococcus aureus 08032712
Vibrio fluvialis = system: Vibrio fluvialis
Staphylococcus aureus = system: Staphylococcus aureus
Aeromonas hydrophila = system: Aeromonas hydrophila
Vibrio parahaemolyticus = system: Vibrio parahaemolyticus
Streptococcus pyogenes = system: Streptococcus pyogenes
Vibrio alginolyticus = system: Vibrio alginolyticus

MIC [1]: 8 µM (≈ 20.2 µg/mL)
MIC [2]: 8 µM and 16 µM
MIC [3]: 4 µM and 8 µM
MIC [4]: ≥ 32 µM
MIC [5]: 16 µM and 8 µM
MIC [6]: 2 µM and 4 µM
MIC [7]: 4 µM and 8 µM
Structure (SMILES): CC[C@H](C)[C@H](NC(=O)CNC(=O)[C@H](Cc1cnc[nH]1)NC(=O)[C@H](CCCCN)NC(=O)[C@@H](NC(=O)[C@H](CO)NC(=O)CNC(=O)[C@@H](NC(=O)[C@H](Cc1ccccc1)NC(=O)[C@H](CCCN=C(N)N)NC(=O)[C@H](CCCCN)NC(=O)[C@@H](N)Cc1ccccc1)[C@@H](C)CC)C(C)C)C(=O)NCC(=O)N[C@@H](Cc1cnc[nH]1)C(=O)N[C@@H](CC(C)C)C(=O)N[C@H](C(=O)N[C@@H](Cc1cnc[nH]1)C(=O)N[C@@H](Cc1cnc[nH]1)C(=O)N[C@H](C(=O)NCC(=O)N[C@H](C(=O)N[C@@H](C)C(=O)N[C@@H](CC(C)C)C(N)=O)C(C)C)[C@@H](C)CC)C(C)C [FKRFIGSVKHGIGHLVHHIGVAL]

MIC [8]: ≥ 32 µM
MIC [9]: ≥ 32 µM
MIC (Fusarium oxysporum): ≥ 256 µM
MIC (Trichoderma asperellum): ≥ 128 µM
MIC [10]: 8 µM (≈ 16 µg/mL)
MIC [11]: 8 µM (≈ 16 µg/mL)
MIC [12]: ≥ 128 µM
MIC [13]: ≥ 64 µM
MIC [14]: ≥ 64 µM
MIC [6]: 16 µM (≈ 31.9 µg/mL)
MIC (Ramulariopsis gossypii): 16 µM (≈ 31.9 µg/mL)
Structure (SMILES): CC(C)C[C@H](NC(=O)[C@H](C)NC(=O)[C@H](CCCN=C(N)N)NC(=O)[C@@H](NC(=O)[C@H](CCC(N)=O)NC(=O)[C@H](CCCCN)NC(=O)[C@H](CCCCN)NC(=O)[C@H](C)NC(=O)[C@H](CC(C)C)NC(=O)[C@H](CCCCN)NC(=O)[C@H](C)NC(=O)CN)C(C)C)C(=O)NCC(=O)N[C@@H](CCCCN)C(=O)N[C@@H](Cc1ccccc1)C(=O)N[C@@H](Cc1ccccc1)C(=O)N[C@@H](CO)C(=O)N[C@@H](Cc1ccccc1)C(N)=O [GAKLAKKQVRALGKFFSF]

MIC [15]: 5.37 µM (≈ 18.8 µg/mL)
MIC [16]: 5.37 µM (≈ 18.8 µg/mL)
MIC [17]: 7.49 µM (≈ 26.2 µg/mL)
MIC [18]: 5.37 µM (≈ 18.8 µg/mL)
MIC [19]: 2.69 µM (≈ 9.38 µg/mL)
MIC (Shigella sp.): 1.34 µM (≈ 4.69 µg/mL)
MIC [20]: 10.7 µM (≈ 37.5 µg/mL)
MIC (Bacillus cereus): 2.69 µM (≈ 9.38 µg/mL)
MIC (Escherichia coli): 5.37 µM (≈ 18.8 µg/mL)
MIC [21]: 5.37 µM (≈ 18.8 µg/mL)
MIC (Nocardia asteroides): 2.69 µM (≈ 9.38 µg/mL)
MIC [22]: 5.37 µM (≈ 18.8 µg/mL)
MIC (Klebsiella oxytoca): 5.37 µM (≈ 18.8 µg/mL)
MIC [23]: 5.37 µM (≈ 18.8 µg/mL)
MIC [24]: 5.37 µM (≈ 18.8 µg/mL)
MIC [25]: 10.7 µM (≈ 37.5 µg/mL)
MIC [26]: 5.37 µM (≈ 18.8 µg/mL)
MIC (Candida glabrata 08A802): 2.69 µM (≈ 9.38 µg/mL)
MIC [27]: 5.37 µM (≈ 18.8 µg/mL)
MIC [28]: 5.37 µM (≈ 18.8 µg/mL)
MIC [6]: 5.37 µM (≈ 18.8 µg/mL)
MIC [29]: 2.69 µM (≈ 9.38 µg/mL)
MIC [30]: 5.37 µM (≈ 18.8 µg/mL)
MIC [31]: 5.37 µM (≈ 18.8 µg/mL)
Structure (SMILES): CC[C@H](C)[C@H](NC(=O)[C@H](CCCN=C(N)N)NC(=O)[C@H](Cc1c[nH]c2ccccc12)NC(=O)CNC(=O)[C@H](Cc1ccc(O)cc1)NC(=O)[C@H](CCCN=C(N)N)NC(=O)[C@H](CCCN=C(N)N)NC(=O)[C@H](C)NC(=O)[C@H](Cc1ccccc1)NC(=O)[C@H](CCCN=C(N)N)NC(=O)CNC(=O)[C@H](C)NC(=O)CNC(=O)[C@H](CCCN=C(N)N)NC(=O)[C@@H](NC(=O)[C@H](Cc1ccccc1)NC(=O)[C@H](CCCN=C(N)N)NC(=O)[C@H](CCCN=C(N)N)NC(=O)[C@H](Cc1c[nH]c2ccccc12)NC(=O)[C@H](CCCN=C(N)N)NC(=O)[C@H](CO)NC(=O)[C@H](CCCN=C(N)N)NC(=O)[C@@H](N)[C@@H](C)O)[C@@H](C)CC)C(=O)N[C@@H](C)C(=O)N[C@@H](CC(C)C)C(=O)NCC(=O)N[C@@H](CC(C)C)C(=O)N[C@H](C(=O)NCC(=O)O)C(C)C [TRSRWRRFIRGAGRFARRYGWRIALGLVG]

MIC (Vibrio fluvialis): ≥ 143 µM
MIC (Staphylococcus aureus): > 143 µM
MIC (Aeromonas hydrophila): 8.93 µM (≈ 15.6 µg/mL)
MIC (Escherichia coli): 8.93 µM (≈ 15.6 µg/mL)
MIC (Streptococcus pyogenes): 8.93 µM (≈ 15.6 µg/mL)
MIC (Vibrio alginolyticus): ≥ 143 µM
Structure (SMILES): CC[C@H](C)[C@H](NC(=O)[C@H](CCCCN)NC(=O)[C@H](Cc1cnc[nH]1)NC(=O)[C@H](CC(C)C)NC(=O)[C@H](CC(C)C)NC(=O)CNC(=O)[C@H](CC(N)=O)NC(=O)[C@@H](N)C(C)C)C(=O)N[C@@H](Cc1ccc(O)cc1)C(=O)NCC(=O)N[C@@H](CC(N)=O)C(=O)N[C@H](C(=O)N[C@@H](CCCN=C(N)N)C(=O)N[C@@H](Cc1ccc(O)cc1)C(=O)N[C@@H](CO)C(=O)O)[C@@H](C)CC [VNGLLHKIYGNIRYS]
MIC (Vibrio parahaemolyticus): ≥ 35.8 µM
